Assay results as given in ChEMBL document CHEMBL1129917, “Structure-based design of novel, dipeptide ligands targeting the pp60Src SH2 domain” (Bioorg Med Chem Lett, 1997).

Each compound was assayed against Proto-oncogene tyrosine-protein kinase Src (Homo sapiens, UniProt P12931) (assay: Inhibition of [125I]-labeled phosphopeptide binding to a Src protein tyrosine kinase SH2 domain.).
Proto-oncogene tyrosine-protein kinase Src, sequence (P12931 2-536 limits assumed): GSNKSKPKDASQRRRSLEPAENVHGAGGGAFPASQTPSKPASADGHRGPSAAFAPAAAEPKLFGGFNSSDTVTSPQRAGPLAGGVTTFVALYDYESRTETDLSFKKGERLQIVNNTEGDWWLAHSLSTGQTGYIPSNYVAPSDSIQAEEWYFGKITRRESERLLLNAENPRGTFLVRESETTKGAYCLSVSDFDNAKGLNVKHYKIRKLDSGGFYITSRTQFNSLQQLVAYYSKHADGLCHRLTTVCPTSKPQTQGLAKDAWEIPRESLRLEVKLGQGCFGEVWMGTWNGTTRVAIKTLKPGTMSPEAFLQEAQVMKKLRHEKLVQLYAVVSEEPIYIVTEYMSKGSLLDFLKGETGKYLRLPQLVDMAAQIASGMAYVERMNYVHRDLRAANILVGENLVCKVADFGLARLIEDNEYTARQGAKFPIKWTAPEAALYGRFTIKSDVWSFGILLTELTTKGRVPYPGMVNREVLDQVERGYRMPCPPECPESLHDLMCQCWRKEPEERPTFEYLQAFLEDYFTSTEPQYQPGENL

Row | IC50 | SMILES
1 | 15 µM | CC(=O)N[C@@H](Cc1ccc(OP(=O)(O)O)cc1)C(=O)N[C@@H](C)C(=O)NCCCc1ccccc1
2 | 6.4 µM | CC(=O)N[C@@H](Cc1ccc(OP(=O)(O)O)cc1)C(=O)N[C@@H](C)C(=O)N(CCCC(=O)O)CCCc1ccccc1
3 | 3.5 µM | CC(=O)N[C@@H](Cc1ccc(OP(=O)(O)O)cc1)C(=O)N[C@@H](CCC(=O)O)C(=O)N(C)CCCc1ccccc1
4 | 2 µM | CC(=O)N[C@@H](Cc1ccc(OP(=O)(O)O)cc1)C(=O)N[C@@H](CCC(=O)O)C(=O)N(CCCC(=O)O)CCCc1ccccc1
5 | 12 µM | CCC[C@H](NC(=O)[C@H](Cc1ccc(OP(=O)(O)O)cc1)NC(C)=O)C(=O)NCCCc1ccccc1
6 | 4.6 µM | CCc1ccccc1CCNC(=O)[C@H](CCC(=O)O)NC(=O)[C@H](Cc1ccc(OP(=O)(O)O)cc1)NC(C)=O
7 | 3.2 µM | CC(=O)N[C@@H](Cc1ccc(OP(=O)(O)O)cc1)C(=O)N[C@@H](CCC(=O)O)C(=O)NCCC1=CC=CC2CCCCC12 (stereo partly specified)
8 | ~30 µM | CC(=O)N[C@@H](Cc1ccc(OP(=O)(O)O)cc1)C(=O)N[C@H](C(=O)NCCCc1ccccc1)C(C)C
9 | 9.1 µM | CC(=O)N[C@@H](Cc1ccc(OP(=O)(O)O)cc1)C(=O)N[C@@H](CCC(=O)O)C(=O)NCCc1ccccc1

The next lines start with the compound.

Row | SMILES | IC50
10 | CC(=O)N[C@@H](Cc1ccc(OP(=O)(O)O)cc1)C(=O)NCC(=O)NCCCc1ccccc1 | ~46 µM
11 | CC(=O)N[C@@H](Cc1ccc(OP(=O)(O)O)cc1)C(=O)N[C@@H](Cc1ccc(OP(=O)(O)O)cc1)C(=O)NCCCc1ccccc1 | 3.9 µM
12 | CCCC(NC(=O)[C@H](Cc1ccc(OP(=O)(O)O)cc1)NC(C)=O)C(=O)N(CCCC(=O)O)CCCc1ccccc1 (stereo partly specified) | 4.3 µM
13 | CC(=O)N[C@@H](Cc1ccc(OP(=O)(O)O)cc1)C(=O)NCC(=O)N(CCCC(=O)O)CCCc1ccccc1 | 14 µM
14 | CC(=O)N[C@@H](Cc1ccc(OP(=O)(O)O)cc1)C(=O)N[C@@H](Cc1ccc(OP(=O)(O)O)cc1)C(=O)N[C@@H](Cc1ccc(OP(=O)(O)O)cc1)C(N)=O | 0.24 µM
15 | CC(=O)N[C@@H](Cc1ccc(OP(=O)(O)O)cc1)C(=O)N[C@@H](CCC(=O)O)C(=O)N[C@@H](CCC(N)=O)Cc1cccc2ccccc12 | 2.3 µM
16 | CC(=O)N[C@@H](Cc1ccc(OP(=O)(O)O)cc1)C(=O)N[C@@H](CCC(=O)O)C(=O)NCCc1cccc2ccccc12 | 4.8 µM
